The text below walks through data of patent US7491794B2, “Macrocyclic compounds as inhibitors of viral replication” (Intermune, Inc., priority 2003, dated 2009).

In one test the target is T1, NS3-NS4A protease (Hepatitis C virus genotype 1a, UniProt P27958).
T1 construct: Recombinant E. coli or Baculovirus full-length NS3 was diluted to 3.33 μM with assay buffer; made in house; host or cells: E. coli or baculovirus (BV) system
As to the kind of experiment: NS3-NS4A protease assay (NS3 inhibition assay, RETS1 substrate), Section B. It is filed as biochemical. As to conditions: read-out: NS3-NS4A IC50. In a few lines:
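Kinetic fluorescence read (335 nm excitation, 495 nm emission, 30 min) of RETS1 cleavage by NS3/NS4A-2 complex, 2 nM E. coli or 3 nM baculovirus NS3, after 10 min room-temperature compound pre-incubation. Four-parameter-fit IC50s converted to Ki by Cheng–Prusoff, Ki=IC50/(1+[S]/Km).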

Test [1] concerns HCV sub-genomic replicon, GS4.3. Put plainly: Quantitation by ELISA of NPTII in the HCV sub-genomic replicon, GS4.3, Section B. It counts as cell-based. As to conditions: Hepatitis C virus; GS4.3 cells, 72 h incubation; read-out: Replicon EC50. The gist of the method: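 NPTII marker protein in lysates was quantified by ELISA read at 450 nm after 72 h inhibitor exposure (3-fold series, final DMSO 1%, G418-free medium) of HuH-7 cells stably harbouring the subgenomic HCV replicon. Values relative to DMSO-treated controls; 4-parameter curves gave EC50.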
(In general: An ELISA detects its analyte on a solid surface through an enzyme-linked reagent.)

T1 sequence (P27958 1027-1657): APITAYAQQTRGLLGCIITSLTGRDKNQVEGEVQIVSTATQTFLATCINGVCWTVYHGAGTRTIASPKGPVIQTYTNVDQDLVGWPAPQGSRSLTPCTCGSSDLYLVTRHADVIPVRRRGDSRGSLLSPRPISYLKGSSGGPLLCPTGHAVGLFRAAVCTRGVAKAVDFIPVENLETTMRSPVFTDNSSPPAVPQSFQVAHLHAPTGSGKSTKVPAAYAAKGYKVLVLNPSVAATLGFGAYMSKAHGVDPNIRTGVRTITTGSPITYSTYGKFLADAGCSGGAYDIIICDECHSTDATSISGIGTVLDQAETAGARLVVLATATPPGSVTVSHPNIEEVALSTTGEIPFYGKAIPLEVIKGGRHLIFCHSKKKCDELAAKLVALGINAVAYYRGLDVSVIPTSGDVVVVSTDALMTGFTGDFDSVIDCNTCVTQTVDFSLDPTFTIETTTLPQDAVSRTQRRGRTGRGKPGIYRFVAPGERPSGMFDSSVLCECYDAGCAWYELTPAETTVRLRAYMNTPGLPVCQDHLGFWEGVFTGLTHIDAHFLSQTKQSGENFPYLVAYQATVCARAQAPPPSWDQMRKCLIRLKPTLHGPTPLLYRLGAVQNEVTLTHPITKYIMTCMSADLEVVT

As usually defined, the IC50 is the midpoint of a concentration-inhibition curve. As usually defined, the EC50 is the concentration that produces a half-maximal response. In the case of `CC(C)(C)NC(=O)N[C@H]1CCCCC/C=C\[C@@H]2C[C@@]2(C(=O)NS(=O)(=O)C2CC2)NC(=O)[C@@H]2C[C@@H](OC(=O)N3Cc4ccccc4C3)CN2C1=O` [AR00320220, (1S,4R,6S,14S,18R)-1,3-Dihydro-isoindole-2-carboxylic acid 14-(3-tert-butyl-ureido)-4-cyclopropanesulfonylaminocarbonyl-2,15-dioxo-3,16-diaza-tricyclo[14.3.0.0^4,6]nonadec-7-en-18-yl ester], the IC50 on NS3-NS4A protease is less than 100 nM. The EC50 in test [1] is less than 100 nM.
As for `O=C(NC1CCOC1)N[C@H]1CCCCC/C=C\[C@@H]2C[C@@]2(C(=O)NS(=O)(=O)C2CC2)NC(=O)[C@@H]2C[C@@H](OC(=O)N3CCc4ccccc4C3)CN2C1=O` (stereo partly drawn) [AR00320222, (1S,4R,6S,14S,18R)-3,4-Dihydro-1H-isoquinoline-2-carboxylic acid 4-cyclopropanesulfonylaminocarbonyl-2,15-dioxo-14-[3-(tetrahydro-furan-3-yl)-ureido]-3,16-diaza-tricyclo[14.3.0.0^4,6]nonadec-7-en-18-yl ester], on NS3-NS4A protease, the half-maximal inhibitory concentration (IC50) is less than 100 nM. Also, the EC50 in test [1] is less than 10000 nM.
On the same counts, the results for `O=C(NC1CCCC1)N[C@H]1CCCCC/C=C\[C@@H]2C[C@@]2(C(=O)NS(=O)(=O)C2CC2)NC(=O)[C@@H]2C[C@@H](OC(=O)N3CCc4ccccc4C3)CN2C1=O` [AR00320403, (1S,4R,6S,14S,18R)-3,4-Dihydro-1H-isoquinoline-2-carboxylic acid 14-(3-cyclopentyl-ureido)-4-cyclopropanesulfonylaminocarbonyl-2,15-dioxo-3,16-diaza-tricyclo[14.3.0.0^4,6]nonadec-7-en-18-yl ester] are less than 100 nM and less than 1000 nM.
On the same counts, the results for `CC(C)(C)NC(=O)N[C@H]1CCCCC/C=C\[C@@H]2C[C@@]2(C(=O)NS(=O)(=O)C2CC2)NC(=O)[C@@H]2C[C@@H](OC(=O)N3Cc4ccc(Cl)cc4C3)CN2C1=O` [AR00320446, (1S,4R,6S,14S,18R)-5-Chloro-1,3-dihydro-isoindole-2-carboxylic acid 14-(3-tert-butyl-ureido)-4-cyclopropanesulfonylaminocarbonyl-2,15-dioxo-3,16-diaza-tricyclo[14.3.0.0^4,6]nonadec-7-en-18-yl ester] are less than 100 nM and less than 100 nM.
In the case of `CC(C)(C)NC(=O)N[C@H]1CCCCC/C=C\[C@@H]2C[C@@]2(C(=O)NS(=O)(=O)C2CC2)NC(=O)[C@@H]2C[C@@H](OC(=O)N3Cc4cc(Cl)c(Cl)cc4C3)CN2C1=O` [AR00320447, (1S,4R,6S,14S,18R)-5,6-Dichloro-1,3-dihydro-isoindole-2-carboxylic acid 14-(3-tert-butyl-ureido)-4-cyclopropanesulfonylaminocarbonyl-2,15-dioxo-3,16-diaza-tricyclo[14.3.0.0^4,6]nonadec-7-en-18-yl ester], the IC50 at NS3-NS4A protease was less than 100 nM. Also, the concentration giving a half-maximal response (EC50) in test [1] was less than 1000 nM.
In the case of `O=C(N[C@H]1CCCCC/C=C\[C@@H]2C[C@@]2(C(=O)O)NC(=O)[C@@H]2C[C@@H](OC(=O)N3Cc4ccc(Cl)cc4C3)CN2C1=O)O[C@@H]1CCOC1` [AR00320448, (1S,4R,6S,14S,18R)-18-(5-Chloro-1,3-dihydro-isoindole-2-carbonyloxy)-2,15-dioxo-14-(tetrahydro-furan-3R-yloxycarbonylamino)-3,16-diaza-tricyclo[14.3.0.0^4,6]nonadec-7-ene-4-carboxylic acid], the IC50 at NS3-NS4A protease is less than 1000 nM. In addition, the EC50 in test [1] is less than 10000 nM.
On the same counts, the results for `CC(C)(C)NC(=O)N[C@H]1CCCCC/C=C\[C@@H]2C[C@@]2(C(=O)O)NC(=O)[C@@H]2C[C@@H](OC(=O)N3Cc4ccc(Cl)cc4C3)CN2C1=O` [AR00320449, (1S,4R,6S,14S,18R)-14-(3-tert-Butyl-ureido)-18-(5-chloro-1,3-dihydro-isoindole-2-carbonyloxy)-2,15-dioxo-3,16-diaza-tricyclo[14.3.0.0^4,6]nonadec-7-ene-4-carboxylic acid] are less than 100 nM and less than 10000 nM.
